ChEMBL document CHEMBL5614419, “Discovery of novel BCL6-Targeting PROTACs with effective antitumor activities against DLBCL in vitro and in vivo” (Eur J Med Chem, 2024)
Active and inactive are the calls of the source. The calls are words filed in the database; no cut-off is given here.

Legend:
[1] = biological target: T1, Protein cereblon/B-cell lymphoma 6 protein (Homo sapiens, UniProt Q96SW2+P41182); experiment: PROTAC activity at CRBN/BCL6 in BCL6-dependent human SU-DHL-4 cells assessed as induction of BCL6 degradation by measuring degradation rate at 1 uM incubated for 48 hrs by Western blot analysis relative to control; assay type: cell-based
T1 sequence (Q96SW2 whole entry, looked up, other chains not shown): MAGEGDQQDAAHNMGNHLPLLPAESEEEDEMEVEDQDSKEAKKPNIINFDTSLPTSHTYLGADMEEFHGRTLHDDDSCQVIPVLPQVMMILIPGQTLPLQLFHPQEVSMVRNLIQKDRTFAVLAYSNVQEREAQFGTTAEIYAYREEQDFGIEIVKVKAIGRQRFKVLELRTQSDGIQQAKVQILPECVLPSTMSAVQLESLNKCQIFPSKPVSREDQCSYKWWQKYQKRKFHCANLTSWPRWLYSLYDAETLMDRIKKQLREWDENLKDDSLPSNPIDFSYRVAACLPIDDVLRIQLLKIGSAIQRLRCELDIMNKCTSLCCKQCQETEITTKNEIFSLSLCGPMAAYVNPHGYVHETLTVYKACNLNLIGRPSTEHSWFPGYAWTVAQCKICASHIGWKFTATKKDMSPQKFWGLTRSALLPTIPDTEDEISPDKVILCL

[2] = biological target: T1, Protein cereblon/B-cell lymphoma 6 protein; experiment: PROTAC activity at CRBN/BCL6 in BCL6-dependent human SU-DHL-4 cells assessed as induction of BCL6 degradation by measuring degradation rate at 10 uM incubated for 48 hrs by Western blot analysis relative to control; assay type: cell-based
SUD4 [3] = experiment: Antiproliferative activity against BCL6-dependent human SU-DHL-4 cells assessed as inhibition of cell growth at 1 uM measured after 6 days by MTT assay relative to control; assay type: functional; settings: SU-DHL-4, 144 h, time 6 day
SUD4 [4] = experiment: Antiproliferative activity against BCL6-dependent human SU-DHL-4 cells assessed as inhibition of cell growth at 10 uM measured after 6 days by MTT assay relative to control; assay type: functional; settings: SU-DHL-4, 144 h, time 6 day
SUD4 [5] = experiment: Upregulation of p21 protein level in human SU-DHL-4 cells at 5 uM preincubated for 48 hrs followed by compound elution and measured after 72 hrs by Western blot analysis; assay type: functional, cell-based
SUD4 [6] = experiment: Upregulation of p27 protein level in human SU-DHL-4 cells at 5 uM preincubated for 48 hrs followed by compound elution and measured after 72 hrs by Western blot analysis; assay type: functional, cell-based
DOHH-2 = experiment: Antiproliferative activity against BCL6-dependent human DOHH-2 cells assessed as inhibition in cell growth measured after 6 days by MTS assay; settings: DOHH-2, 144 h
SUD4 [7] = experiment: Antiproliferative activity against BCL6-dependent human SU-DHL-4 cells assessed as inhibition in cell growth measured after 6 days by MTT assay; settings: SU-DHL-4, 144 h
SU-DHL-6 = experiment: Antiproliferative activity against BCL6-dependent human SU-DHL-6 cells assessed as inhibition in cell growth measured after 6 days by MTT assay; settings: SU-DHL-6, 144 h
OCI-Ly1 = experiment: Antiproliferative activity against BCL6-dependent human OCI-Ly1 cells assessed as inhibition in cell growth measured after 6 days by MTT assay; settings: OCI-Ly1, 144 h
[8] = Cytotoxicity against HEK293T cells assessed as inhibition in cell growth measured after 6 days by MTT assay; assay type: toxicity, cell-based, HEK-293T; settings: human, HEK293T cells
[9] = Cytotoxicity against human WI-38 VA13 cells assessed as inhibition in cell growth measured after 6 days by MTT assay; assay type: toxicity, cell-based; settings: WI-38 VA13 cells
[10] = biological target: T1, Protein cereblon/B-cell lymphoma 6 protein; experiment: PROTAC activity at CRBN/BCL6 in human SU-DHL-4 cells assessed as induction of BCL6 degradation incubated for 48 hrs by Western blot analysis; assay type: cell-based
[11] = biological target: T1, Protein cereblon/B-cell lymphoma 6 protein; experiment: PROTAC activity at CRBN/BCL6 in human SU-DHL-4 cells assessed as induction of BCL6 degradation by measuring maximal efficacy incubated for 48 hrs by Western blot analysis relative to control; assay type: cell-based
[12] = biological target: T1, Protein cereblon/B-cell lymphoma 6 protein; experiment: PROTAC activity at CRBN/BCL6 in human DOHH-2 cells assessed as induction of BCL6 degradation incubated for 48 hrs by Western blot analysis; assay type: cell-based
[13] = biological target: T1, Protein cereblon/B-cell lymphoma 6 protein; experiment: PROTAC activity at CRBN/BCL6 in human DOHH-2 cells assessed as induction of BCL6 degradation by measuring maximal efficacy incubated for 48 hrs by Western blot analysis relative to control; assay type: cell-based
[14] = biological target: B-cell lymphoma 6 protein (Homo sapiens, UniProt P41182); experiment: Binding affinity to fluorescent labeled recombinant BCL-6 BTB domain (unknown origin) assessed as dissociation constant incubated for 10 mins by MST analysis

COc1cc(Nc2nc(N3CCN(CCCCNc4cccc5c4C(=O)N(C4CCC(=O)NC4=O)C5=O)CC3)ncc2F)ccc1NC(=O)c1ccc(C2=CCCC2)s1 (configuration not stated)
Activity [1]: 40.6%
Activity [2]: 36.3%

COc1cc(Nc2nc(N3CCN(CCCCCNc4cccc5c4C(=O)N(C4CCC(=O)NC4=O)C5=O)CC3)ncc2F)ccc1NC(=O)c1ccc(C2=CCCC2)s1 (configuration not stated)
Activity [1]: 58.4%
Activity [2]: 64%
inhibition at 1 µM (SUD4 [3]): 58.7%
inhibition at 10 µM (SUD4 [4]): 70.1%

COc1cc(Nc2nc(N3C[C@@H](C)N[C@@H](C)C3)ncc2F)ccc1NC(=O)c1ccc(C2=CCCC2)s1
Activity (SUD4 [5]): inactive
Activity (SUD4 [6]): inactive

COc1cc(Nc2nc(N3CCN(CCOCCOCCNc4cccc5c4C(=O)N(C4CCC(=O)NC4=O)C5=O)CC3)ncc2F)ccc1NC(=O)c1ccc(C2=CCCC2)s1 (configuration not stated)
Activity [1]: 35.6%
Activity [2]: 38.3%

COc1cc(Nc2nc(N3CCN(CCOCCNc4cccc5c4C(=O)N(C4CCC(=O)N(C)C4=O)C5=O)CC3)ncc2F)ccc1NC(=O)c1ccc(C2=CCCC2)s1 (configuration not stated)
Activity [1]: 11.9%
Activity [2]: 20.7%
IC50 (DOHH-2): > 10 µM
IC50 (SUD4 [7]): > 10 µM
IC50 (SU-DHL-6): > 10 µM
IC50 (OCI-Ly1): > 10 µM
IC50 at 6 days [8]: > 10 µM
IC50 at 6 days [9]: > 10 µM
DC50 [10]: > 10 µM
Emax [11]: 29.4%
DC50 [12]: > 10 µM
Emax [13]: 11.6%

COc1cc(Nc2nc(N3CCN(C(=O)CC4CCN(c5cccc6c5C(=O)N(C5CCC(=O)NC5=O)C6=O)CC4)CC3)ncc2F)ccc1NC(=O)c1ccc(C2=CCCC2)s1 (configuration not stated)
Activity [1]: 7.1%
Activity [2]: 2.7%

COc1cc(Nc2nc(N3CCN(C(=O)CCOCC#Cc4cccc5c4CN(C4CCC(=O)NC4=O)C5=O)CC3)ncc2F)ccc1NC(=O)c1ccc(C2=CCCC2)s1 (configuration not stated)
Activity [1]: 27.4%
Activity [2]: 73.2%
inhibition at 1 µM (SUD4 [3]): 5.7%
inhibition at 10 µM (SUD4 [4]): 98%

COc1cc(Nc2nc(N3CCN(C(=O)CCCCNc4cccc5c4C(=O)N(C4CCC(=O)NC4=O)C5=O)CC3)ncc2F)ccc1NC(=O)c1ccc(C2=CCCC2)s1 (configuration not stated)
Activity [1]: 0.1%
Activity [2]: 31.7%

COc1cc(Nc2nc(N3CCN(C(=O)CCOCCOCCOCCOCCNc4cccc5c4C(=O)N(C4CCC(=O)NC4=O)C5=O)CC3)ncc2F)ccc1NC(=O)c1ccc(C2=CCCC2)s1 (configuration not stated)
Activity [1]: 12.2%

COc1cc(Nc2nc(N3CCN(CCOCCNc4ccc5c(c4)C(=O)C(C4CCC(=O)NC4=O)C5=O)CC3)ncc2F)ccc1NC(=O)c1ccc(C2=CCCC2)s1 (configuration not stated)
Activity [1]: 5.2%
Activity [2]: 21.6%

COc1cc(Nc2nc(N3CCN(C(=O)CCC4CCN(c5cccc6c5C(=O)N(C5CCC(=O)NC5=O)C6=O)CC4)CC3)ncc2F)ccc1NC(=O)c1ccc(C2=CCCC2)s1 (configuration not stated)
Activity [1]: 23.1%
Activity [2]: 24.1%

COc1cc(Nc2nc(N3CCN(CCCCCCNc4cccc5c4C(=O)N(C4CCC(=O)NC4=O)C5=O)CC3)ncc2F)ccc1NC(=O)c1ccc(C2=CCCC2)s1 (configuration not stated)
Activity [1]: 42.9%
Activity [2]: 55.8%

COc1cc(Nc2nc(N3CCN(C(=O)CCOCCNc4cccc5c4C(=O)N(C4CCC(=O)NC4=O)C5=O)CC3)ncc2F)ccc1NC(=O)c1ccc(C2=CCCC2)s1 (configuration not stated)
Activity [1]: 55.7%
Activity [2]: 46.3%
inhibition at 1 µM (SUD4 [3]): 47%
inhibition at 10 µM (SUD4 [4]): 72.9%

COc1cc(Nc2nc(N3CCN(C(=O)CCOCCOCCOCCNc4cccc5c4C(=O)N(C4CCC(=O)NC4=O)C5=O)CC3)ncc2F)ccc1NC(=O)c1ccc(C2=CCCC2)s1 (configuration not stated)
Activity [1]: 34.7%
Activity [2]: 41.2%

COc1cc(Nc2nc(N3CCN(C(=O)CCCCCNc4cccc5c4C(=O)N(C4CCC(=O)NC4=O)C5=O)CC3)ncc2F)ccc1NC(=O)c1ccc(C2=CCCC2)s1 (configuration not stated)
Activity [1]: 38%
Activity [2]: 54.1%
inhibition at 1 µM (SUD4 [3]): 31%
inhibition at 10 µM (SUD4 [4]): 41.3%

COc1cc(Nc2nc(N3CCN(C(=O)CCOCCNc4cccc5c4CC(C4CCC(=O)NC4=O)C5=O)CC3)ncc2F)ccc1NC(=O)c1ccc(C2=CCCC2)s1 (configuration not stated)
Activity [1]: 11.1%
Activity [2]: 37%

COc1cc(Nc2nc(N3CCN(C(=O)CCCCCCNc4cccc5c4C(=O)N(C4CCC(=O)NC4=O)C5=O)CC3)ncc2F)ccc1NC(=O)c1ccc(C2=CCCC2)s1 (configuration not stated)
Activity [1]: 22.7%
Activity [2]: 1.4%

COc1cc(Nc2nc(N3CCN(C(=O)CCOCCNc4cc5c(cc4F)C(=O)C(C4CCC(=O)NC4=O)C5=O)CC3)ncc2F)ccc1NC(=O)c1ccc(C2=CCCC2)s1 (configuration not stated)
Activity [1]: 0%
Activity [2]: 0%

COc1cc(Nc2nc(N3CCN(CCOCCNc4cccc5c4CC(C4CCC(=O)NC4=O)C5=O)CC3)ncc2F)ccc1NC(=O)c1ccc(C2=CCCC2)s1 (configuration not stated)
Activity [1]: 15.7%
Activity [2]: 37.1%

COc1cc(Nc2nc(N3CCN(C(=O)CCOCCNc4ccc5c(c4)C(=O)C(C4CCC(=O)NC4=O)C5=O)CC3)ncc2F)ccc1NC(=O)c1ccc(C2=CCCC2)s1 (configuration not stated)
Activity [1]: 36.6%
Activity [2]: 34%

CC[C@H](C)[C@H](NC(=O)[C@H](CO)NC(=O)[C@H](CCCNC(=N)N)NC(=O)CNC(=O)[C@H](C)NC(=O)[C@H](CCC(=O)O)NC(=O)[C@H](CCCCN)NC(=O)[C@@H](NC(=O)[C@@H](NC(=O)[C@H](C)NC(=O)[C@@H](NC(=O)[C@@H](N)CC(C)C)C(C)C)[C@@H](C)O)C(C)C)C(=O)N[C@@H](Cc1cnc[nH]1)C(=O)N[C@@H](CCC(=O)O)C(=O)N[C@H](C(=O)N1CCC[C@H]1C(=O)N[C@@H](CCCNC(=N)N)C(=O)O)[C@@H](C)CC
Kd [14]: 30 µM

COc1cc(Nc2nc(N3CCN(C(=O)CCOCCOCCNc4cccc5c4C(=O)N(C4CCC(=O)NC4=O)C5=O)CC3)ncc2F)ccc1NC(=O)c1ccc(C2=CCCC2)s1 (configuration not stated)
Activity [1]: 28.2%
Activity [2]: 48.1%

COc1cc(Nc2nc(N3CCN(CCOCCOc4cccc5c4C(=O)C(C4CCC(=O)NC4=O)C5=O)CC3)ncc2F)ccc1NC(=O)c1ccc(C2=CCCC2)s1 (configuration not stated)
Activity [1]: 13.5%
Activity [2]: 26.3%
